Assay results taken from US9833497B2, “Human originated EGF domain proteins and use of the same” (CHENGDU SOURCEBIO LIMITED-LIABILITY COMPANY, priority 2013, dated 2017).

Key:
Format in all cases: cell-based
[1] = system: Proteus mirabilis; assay: MIC against Gram-negative bacteria: Proteus mirabilis; settings: for MIC against P. mirabilis / MIC (μg/mL) P. mirabilis: 5×10^5 CFU/mL
Procedure, shortened: (§1)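 MIC = lowest concentration of recombinant protein showing no growth. Test proteins: purified human-derived EGF domain proteins, two-fold dilution series, three wells per concentration; inoculum 5×10^5 CFU/mL in LB; incubation 37° C with shaking at 175 rpm.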

[2] = system: E. coli BL21; assay: MIC against Gram-negative bacteria: E. coli BL21; settings: for MIC against E. coli BL21 / MIC (μg/mL) E. coli BL21: 5×10^5 CFU/mL
Procedure, shortened: as §1

[3] = system: Klebsiella pneumonia; assay: MIC against Gram-negative bacteria: Klebsiella pneumonia; settings: for MIC against K. pneumonia / MIC (μg/mL) K. pneumonia: 5×10^5 CFU/mL
Procedure, shortened: as §1

[4] = system: Citrobacter diversus; assay: MIC against Gram-negative bacteria: Citrobacter diversus; settings: for MIC against C. diversus / MIC (μg/mL) C. diversus: 5×10^5 CFU/mL
Procedure, shortened: as §1

[5] = system: Enterobacter cloacae; assay: MIC against Gram-negative bacteria: Enterobacter cloacae; settings: for MIC against E. cloacae / MIC (μg/mL) E. cloacae: 5×10^5 CFU/mL
Procedure, shortened: as §1

[6] = system: Proteus vulgaris; assay: MIC against Gram-negative bacteria: Proteus vulgaris; settings: for MIC against P. vulgaris / MIC (μg/mL) P. vulgaris: 5×10^5 CFU/mL
Procedure, shortened: as §1

[7] = system: Pseudomonas aeruginosa; assay: MIC against Gram-negative bacteria: Pseudomonas aeruginosa; settings: for MIC against P. aeruginosa / MIC (μg/mL) P. aeruginosa: 5×10^5 CFU/mL
Procedure, shortened: as §1

[8] = system: Serratia marcescens; assay: MIC against Gram-negative bacteria: Serratia marcescens; settings: for MIC against S. marcescens / MIC (μg/mL) S. marcescens: 5×10^5 CFU/mL
Procedure, shortened: as §1

[9] = system: Aeromonas hydrophila; assay: MIC against Gram-negative bacteria: Aeromonas hydrophila; settings: for MIC against A. hydrophila / MIC (μg/mL) A. hydrophila: 5×10^5 CFU/mL
Procedure, shortened: as §1

[10] = system: Moraxella catarrhalis; assay: MIC against Gram-negative bacteria: Moraxella catarrhalis; settings: for MIC against M. catarrhalis / MIC (μg/mL) M. catarrhalis: 5×10^5 CFU/mL
Procedure, shortened: as §1

[11] = system: E. coli DH5α; assay: Antibacterial activity: MIC and growth curve against E. coli DH5α in 96-well plate; settings: minimal inhibitory concentration against E. coli DH5α; 96-well plate, 5×10^5 CFU/mL, 37° C., judged after 8 h
Procedure, shortened: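 Log-phase DH5α (OD600 about 0.5, 37° C, 185 rpm in LB) was pelleted, resuspended in fresh LB and seeded at 5×10^5 CFU/mL with recombinant protein at 50, 25 and 12.5 μg/mL (two-fold series), in triplicate. Plates were shaken at 175 rpm, 37° C, and OD600 was read every 30 min. MIC was the lowest concentration with no growth.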

[12] = P. mirabilis, 10 h cultivation at 37° C.
[13] = E. coli BL21, 10 h cultivation at 37° C.
[14] = K. pneumonia, 10 h cultivation at 37° C.
[15] = C. diversus, 10 h cultivation at 37° C.
[16] = E. cloacae, 10 h cultivation at 37° C.
[17] = P. vulgaris, 10 h cultivation at 37° C.
[18] = P. aeruginosa, 10 h cultivation at 37° C.
[19] = S. marcescens, 10 h cultivation at 37° C.
[20] = A. hydrophila, 10 h cultivation at 37° C.
[21] = M. catarrhalis, 10 h cultivation at 37° C.
[22] = Proteus mirabilis, 10 h cultivation at 37° C.
[23] = Klebsiella pneumonia, 10 h cultivation at 37° C.
[24] = Citrobacter diversus, 10 h cultivation at 37° C.
[25] = Enterobacter cloacae, 10 h cultivation at 37° C.
[26] = Proteus vulgaris, 10 h cultivation at 37° C.
[27] = Pseudomonas aeruginosa, 10 h cultivation at 37° C.
[28] = Serratia marcescens, 10 h cultivation at 37° C.
[29] = Aeromonas hydrophila, 10 h cultivation at 37° C.
[30] = Moraxella catarrhalis, 10 h cultivation at 37° C.

PRT592 (CDCDFRGTEGPGCDKASGRCLCRPGLTGPRCDQCQRGYCNRYPVCVA; listed as Homo sapiens)
100 µg/mL: MIC against M. catarrhalis ([10]; 96-well plate, 37° C., 10 h)
50 µg/mL: MIC against P. mirabilis ([1]; 96-well plate, 37° C., 10 h) | MIC against C. diversus ([4]; 96-well plate, 37° C., 10 h) | MIC against E. cloacae ([5]; 96-well plate, 37° C., 10 h) | MIC against P. aeruginosa ([7]; 96-well plate, 37° C., 10 h) | MIC [11]
25 µg/mL: MIC against P. vulgaris ([6]; 96-well plate, 37° C., 10 h)
12.5 µg/mL: MIC against E. coli BL21 ([2]; 96-well plate, 37° C., 10 h) | MIC against K. pneumonia ([3]; 96-well plate, 37° C., 10 h) | MIC against S. marcescens ([8]; 96-well plate, 37° C., 10 h) | MIC against A. hydrophila ([9]; 96-well plate, 37° C., 10 h)

PRT241 (DTDECQIAGVCQQMCVNYVGGFECYCSEGHELEADGISCS; listed as Homo sapiens)
25 µg/mL: MIC (μg/mL) P. vulgaris [6, 17] | MIC (μg/mL) M. catarrhalis [10, 21]
50 µg/mL: MIC (μg/mL) S. marcescens [8, 19]
12.5 µg/mL: MIC (μg/mL) P. mirabilis [1, 12] | MIC (μg/mL) E. coli BL21 [2, 13] | MIC (μg/mL) K. pneumonia [3, 14] | MIC (μg/mL) C. diversus [4, 15] | MIC (μg/mL) E. cloacae [5, 16] | MIC (μg/mL) P. aeruginosa [7, 18] | MIC (μg/mL) A. hydrophila [9, 20] | MIC [11]

PRT19 (CSCDPQGAVRDDCEQMTGLCSCKPGVAGPKCGQCPDGRALGPAGCEA; listed as Homo sapiens)
50 µg/mL: MIC (μg/mL) E. cloacae ([5]; Enterobacter cloacae, 96-well plate, 37° C., 10 h) | MIC (μg/mL) S. marcescens ([8]; Serratia marcescens, 96-well plate, 37° C., 10 h) | MIC (μg/mL) M. catarrhalis ([10]; Moraxella catarrhalis, 96-well plate, 37° C., 10 h)
12.5 µg/mL: MIC (μg/mL) P. mirabilis ([1]; Proteus mirabilis, 96-well plate, 37° C., 10 h) | MIC (μg/mL) E. coli BL21 ([2]; E. coli BL21, 96-well plate, 37° C., 10 h) | MIC (μg/mL) P. aeruginosa ([7]; Pseudomonas aeruginosa, 96-well plate, 37° C., 10 h) | MIC (μg/mL) A. hydrophila ([9]; Aeromonas hydrophila, 96-well plate, 37° C., 10 h)
25 µg/mL: MIC (μg/mL) K. pneumonia ([3]; Klebsiella pneumonia, 96-well plate, 37° C., 10 h) | MIC (μg/mL) C. diversus ([4]; Citrobacter diversus, 96-well plate, 37° C., 10 h) | MIC (μg/mL) P. vulgaris ([6]; Proteus vulgaris, 96-well plate, 37° C., 10 h) | MIC [11]

PRT169 (CIRYPGCLHGTCQQPWQCNCQEGWGGLFC; listed as Homo sapiens)
100 µg/mL: MIC (μg/mL) K. pneumonia [3, 14]
25 µg/mL: MIC (μg/mL) P. vulgaris [6, 17] | MIC (μg/mL) A. hydrophila [9, 20] | MIC (μg/mL) M. catarrhalis [10, 21]
12.5 µg/mL: MIC (μg/mL) E. coli BL21 [2, 13] | MIC (μg/mL) C. diversus [4, 15] | MIC (μg/mL) S. marcescens [8, 19]
50 µg/mL: MIC (μg/mL) P. mirabilis [1, 12] | MIC (μg/mL) E. cloacae [5, 16] | MIC (μg/mL) P. aeruginosa [7, 18] | MIC [11]

PRT1444 (HHIPCPEHYNGFCMHGKCEHSINMQEPSCRCDAGYTGQHCE; listed as Homo sapiens)
12.5 µg/mL: MIC against E. cloacae [5, 25] | MIC against M. catarrhalis [10, 30] | MIC [11]
25 µg/mL: MIC against P. mirabilis [1, 22] | MIC against E. coli BL21 [2, 13] | MIC against K. pneumonia [3, 23] | MIC against S. marcescens [8, 28] | MIC against A. hydrophila [9, 29]
50 µg/mL: MIC against C. diversus [4, 24] | MIC against P. vulgaris [6, 26] | MIC against P. aeruginosa [7, 27]

PRT1423 (PVDPCFRANCEYQCQPLNQTSYLCVCAEGFAPIPHEPHRCQ; listed as Homo sapiens)
25 µg/mL: MIC against C. diversus [4, 24]
12.5 µg/mL: MIC against P. mirabilis [1, 22] | MIC against E. coli BL21 [2, 13] | MIC against K. pneumonia [3, 23] | MIC against E. cloacae [5, 25] | MIC against P. aeruginosa [7, 27] | MIC against S. marcescens [8, 28] | MIC against A. hydrophila [9, 29]
50 µg/mL: MIC against P. vulgaris [6, 26] | MIC against M. catarrhalis [10, 30] | MIC [11]

PRT943 (PNVSCDIAASRRGVLVEHLCQHSGVCINAGNTHYCQCPLGYTGSYCE; listed as Homo sapiens)
12.5 µg/mL: MIC [1, 12] | MIC [2, 13] | MIC [3, 14] | MIC [4, 15] | MIC [6, 17] | MIC [7, 18] | MIC [9, 20] | MIC [10, 21] | MIC [11]
50 µg/mL: MIC [8, 19]
25 µg/mL: MIC [5, 16]
